By IC50 is commonly meant the point on the concentration scale where inhibition reaches its midpoint. A lower IC50 goes with inhibition by little substance. The inhibition is the share of the control response that was lost under treatment.

In experiment [1] the target is T1, Tyrosine-protein phosphatase non-receptor type 1 (Homo sapiens, UniProt P18031).
T1 sequence (P18031 whole entry): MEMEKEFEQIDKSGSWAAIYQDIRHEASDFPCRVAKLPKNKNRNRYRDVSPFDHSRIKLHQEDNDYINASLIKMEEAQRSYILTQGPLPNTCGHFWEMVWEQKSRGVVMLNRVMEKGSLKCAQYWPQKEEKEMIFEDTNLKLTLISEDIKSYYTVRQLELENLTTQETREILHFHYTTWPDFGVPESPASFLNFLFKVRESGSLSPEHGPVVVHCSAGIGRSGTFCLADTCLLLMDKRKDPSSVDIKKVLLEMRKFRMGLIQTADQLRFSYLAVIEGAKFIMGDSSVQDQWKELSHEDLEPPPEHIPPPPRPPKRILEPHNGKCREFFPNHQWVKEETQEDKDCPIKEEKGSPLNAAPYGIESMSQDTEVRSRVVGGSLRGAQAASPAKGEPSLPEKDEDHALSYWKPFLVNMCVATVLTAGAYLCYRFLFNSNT
Description: Inhibition of protein tyrosine phosphatase 1B (PTP1B) activity in 3,6-fluorescein diphosphate (FDP) assay.

The species entered for experiment [2] is Rattus norvegicus. Description: Inhibition of protein tyrosine phosphatase (PTP) activity in rat liver endosome insulin receptor (IR) dephosphorylation assay at 0.1 mM.
The species entered for experiment [3] is Rattus norvegicus. In words: Inhibition of protein tyrosine phosphatase (PTP) activity in rat liver endosome insulin receptor (IR) dephosphorylation assay at 1 mM.
In experiment [4] the target is T1, Tyrosine-protein phosphatase non-receptor type 1. In words: Inhibition of protein tyrosine phosphatase 1B (PTP1B) activity in 3,6-fluorescein diphosphate (FDP) assay; NI= no inhibition.

Compound `O=I(=O)c1c[nH]cn1` registered an IC50 in experiment [1] of 1050 µM. Also, the inhibition in experiment [2] was 22%; in experiment [3] it was 43%.
As for `OO`, the inhibition in experiment [2] is 0%; in experiment [3] it was 65%.
For `O=C1OI(O)c2ccccc21`, the IC50 entry in experiment [4] is given as “Not Active”. In experiment [3], this compound showed an inhibition of 10%.
Turning to `O=I(=O)c1ccccc1`, the IC50 in experiment [1] came to 2650 µM. In addition, the inhibition came out at 0% in experiment [2] and 88% in experiment [3].
Turning to `CC(C)(C)OOI1OC(=O)c2ccccc21`, inhibition in experiment [1] was half-maximal at 230 µM (IC50). The inhibition in experiment [2] amounted to 48%; in experiment [3], 78%.
In the same order, the values of `O=C1OI(=O)(O)c2ccccc21` (stereo not given) are 1160 µM, 36% and 98%.
In the same order, the values of `CC(=O)OI1(OC(C)=O)(OC(C)=O)OC(=O)c2ccccc21` are 130 µM, 50% and 69%.
As for `Cc1ccc(I(=O)=O)cc1`, the IC50 in experiment [1] worked out at 1510 µM. Besides, the inhibition in experiment [2] was found to be 6%; in experiment [3] it was 47%.
On to `O=I(=O)c1ccc(I(=O)=O)cc1`, for which, in experiment [1], the IC50 amounted to 1410 µM. In experiment [3], this compound showed an inhibition of 30%.
In turn, `O=C(O)c1cccc(I(=O)=O)c1` came in with an IC50 in experiment [1] of 890 µM. In addition, the inhibition in experiment [2] was 32%; in experiment [3], 67%.
As for `O=P1(O)Oc2ccccc2I(=O)(O)O1` (stereo not given), the IC50 in experiment [1] stood at 350 µM. The compound further gave an inhibition in experiment [2] of 17%.
`O=[N+]([O-])c1ccc(I(=O)=O)cc1` came in with a 50% inhibitory concentration (IC50) in experiment [1] of 130 µM. For the same compound, the inhibition came to 30% in experiment [2] and 90% in experiment [3].
The matching figures for `O=[N+]([O-])c1cccc(I(=O)=O)c1`: 1140 µM, 27% and 86%.

The values are drawn from ChEMBL document CHEMBL1131920, “Periodinates: a new class of protein tyrosine phosphatase inhibitors” (Bioorg Med Chem Lett, 1999).
